Test results published in the supplement of paper PMC10307832.

What was measured:
Test in all cases: relative viability (nuclei count vs DMSO), 5 days (fraction); higher = more cells survive
[1] = tested on: EPLC-272H
Outline: (§1)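 Values are medians from duplicate plates. Each reflects relative viability, defined as the nuclei count of treated wells over that of vehicle wells. Lung cancer cell lines in 1536-well plates were pin-tool dosed one day after seeding with one drug alone or with a fixed anchor-drug dose plus five library-drug doses (not always all listed) in √10 steps, then fixed, stained and imaged at 4× after 5 days.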

[2] = tested on: NCI-H1666
Outline: as §1

[3] = tested on: NCI-H1975
Outline: as §1

[4] = tested on: HCC-15
Outline: as §1

[5] = tested on: EMC-BAC-2
Outline: as §1

[6] = tested on: NCI-H358
Outline: as §1

[7] = tested on: LXF-289
Outline: as §1

[8] = tested on: NCI-H2023
Outline: as §1

[9] = tested on: UMC-11
Outline: as §1

[10] = tested on: COR-L 105
Outline: as §1

[11] = tested on: HCC-78
Outline: as §1

## COc1cc2nccc(Oc3ccc(NC(=O)Nc4cc(C)on4)c(Cl)c3)c2cc1OC [Tivozanib] + CS(=O)(=O)N1CCN(Cc2cc3nc(-c4cccc5[nH]ncc45)nc(N4CCOCC4)c3s2)CC1 [Pictilisib] (partner 1 µM)
[1]; first compound 0.005 µM
  relative viability: 0.311
[1]; first compound 0.01581 µM
  relative viability: 0.31
[1]; first compound 0.05 µM
  relative viability: 0.326
[1]; first compound 0.1581 µM
  relative viability: 0.285
[1]; first compound 0.5 µM
  relative viability: 0.162
[2]; first compound 0.005 µM
  relative viability: 0.404
[2]; first compound 0.01581 µM
  relative viability: 0.393
[2]; first compound 0.05 µM
  relative viability: 0.384
[2]; first compound 0.1581 µM
  relative viability: 0.389
[2]; first compound 0.5 µM
  relative viability: 0.478
[3]; first compound 0.005 µM
  relative viability: 0.278
[3]; first compound 0.01581 µM
  relative viability: 0.277
[3]; first compound 0.05 µM
  relative viability: 0.271
[3]; first compound 0.1581 µM
  relative viability: 0.234
[3]; first compound 0.5 µM
  relative viability: 0.275
[4]; first compound 0.005 µM
  relative viability: 0.631
[4]; first compound 0.01581 µM
  relative viability: 0.641
[4]; first compound 0.05 µM
  relative viability: 0.719
[4]; first compound 0.1581 µM
  relative viability: 0.588
[4]; first compound 0.5 µM
  relative viability: 0.717
[5]; first compound 0.005 µM
  relative viability: 0.561
[5]; first compound 0.01581 µM
  relative viability: 0.529
[5]; first compound 0.05 µM
  relative viability: 0.554
[5]; first compound 0.1581 µM
  relative viability: 0.389
[5]; first compound 0.5 µM
  relative viability: 0.578
[6]; first compound 0.005 µM
  relative viability: 0.345
[6]; first compound 0.01581 µM
  relative viability: 0.332
[6]; first compound 0.05 µM
  relative viability: 0.386
[6]; first compound 0.1581 µM
  relative viability: 0.254
[6]; first compound 0.5 µM
  relative viability: 0.367
[7]; first compound 0.005 µM
  relative viability: 0.736
[7]; first compound 0.01581 µM
  relative viability: 0.814
[7]; first compound 0.05 µM
  relative viability: 0.758
[7]; first compound 0.1581 µM
  relative viability: 0.764
[7]; first compound 0.5 µM
  relative viability: 0.807
[8]; first compound 0.005 µM
  relative viability: 0.238
[8]; first compound 0.01581 µM
  relative viability: 0.228
[8]; first compound 0.05 µM
  relative viability: 0.249
[8]; first compound 0.1581 µM
  relative viability: 0.178
[8]; first compound 0.5 µM
  relative viability: 0.195
[9]; first compound 0.005 µM
  relative viability: 0.793
[9]; first compound 0.01581 µM
  relative viability: 0.725
[9]; first compound 0.05 µM
  relative viability: 0.712
[9]; first compound 0.5 µM
  relative viability: 0.653
[10]; first compound 0.01581 µM
  relative viability: 0.405
[10]; first compound 0.05 µM
  relative viability: 0.431
[10]; first compound 0.1581 µM
  relative viability: 0.347
[10]; first compound 0.5 µM
  relative viability: 0.317
[11]; first compound 0.005 µM
  relative viability: 0.188
[11]; first compound 0.01581 µM
  relative viability: 0.235
[11]; first compound 0.05 µM
  relative viability: 0.207
[11]; first compound 0.1581 µM
  relative viability: 0.14
[11]; first compound 0.5 µM
  relative viability: 0.206
